Laboratory results as given in patent US20100003246A1, “Novel heterocyclic compounds and uses therof” (priority 2008, published 2010).

How the values were obtained:
A375 cells = test: Cell Titer-Glo cell viability assay, A375; format: cell-based; conditions: Homo sapiens, A-375, 72 h; Melanoma cell line A375; 3 days compound incubation; 1000 cells/well
Procedure: (§1) The Cell Titer-Glo® assay (Promega) was used to measure cell viability. Cells were plated into 96-well black walled tissue culture plates in complete growth media. The plates were then incubated under standard growth conditions of 37° C. and 5% CO2 until the cells had attached to the plates (3-6 hours), then compounds were added to the cells. Compounds were serially diluted in DMSO using 3-fold dilutions and then diluted in complete media before being added to the cells (final DMSO concentration on cells was 0.1-0.2%).
(§2) After compound incubation, the cell plates were equilibrated to room temperature, culture media was removed, and 200 uL of Cell Titer-Glo® reagent mix was added to each well (1:1 mixture of Cell Titer-Glo® reagent and complete growth media, equilibrated to room temperature). The plates were shaken for 5-10 minutes, then sealed and luminescence was measured (using Trilux plate reader, Perkin Elmer).
(§3) Analysis of data was done by subtracting the background luminescence value from each data point, then determining the percent inhibition of total growth (as determined by the values for DMSO-treated wells).
(§4) To determine the EC50 for each compound, the data were fit using the Levenburg Marquardt algorithm, represented in the XLfit software as y=A+((B−A)/(1+((C/x)̂D))), the four parameter dose response model 205, where A is the minimum Y value, B is the maximum Y value, C is the Log IC50 and D is the slope.

SU86.86 cells = test: Cell Titer-Glo cell viability assay, SU86.86; format: cell-based; conditions: Homo sapiens, SU.86.86, 120 h; Pancreatic cell line SU86.86; 5 days compound incubation; 1000 cells/well
Procedure: as §1, §2, §3, §4

Malme3M cells = test: Cell Titer-Glo cell viability assay, Malme3M; format: cell-based; conditions: Homo sapiens, Malme-3M, 120 h; Melanoma cell line Malme3M; 5 days compound incubation; 1000 cells/well
Procedure: as §1, §2, §3, §4

Capan1 cells = test: Cell Titer-Glo cell viability assay, Capan1; format: cell-based; conditions: Homo sapiens, CAPAN-1, 120 h; Pancreatic cell line Capan1; 5 days compound incubation; 2000 cells/well
Procedure: as §1, §2, §3, §4

G361 cells = test: Cell Titer-Glo cell viability assay, G361; format: cell-based; conditions: Homo sapiens, G-361, 96 h; Melanoma cell line G361; 4 days compound incubation; 1000 cells/well
Procedure: as §1, §2, §3, §4

K1 cells = test: Cell Titer-Glo cell viability assay, K1; format: cell-based; conditions: 96 h; Papillary thyroid cell line K1; 4 days compound incubation; 1500 cells/well
Procedure: as §1, §2
(§5) Analysis of data was done by subtracting the background luminescence value from each data point, then determining the percent inhibition of total growth (as determined by the values for DMSO-treated wells). […]

PC3MM cells = test: Cell Titer-Glo cell viability assay, PC3MM; format: cell-based; conditions: 120 h; Prostate cell line PC3MM; 5 days compound incubation; 1500 cells/well
Procedure: as §1, §2, §5

b-Raf(V600E) = target: T1, b-Raf(V600E) (Homo sapiens, UniProt P15056, V600E); test: Raf/Mek Amplified Luminescence Proximity Homogeneous Assay (Alpha Screen), b-Raf(V600E); format: biochemical; conditions: mutant b-Raf(V600E), read-out: mut-b-RAF (IC50 in uM)
T1 construct: made in house
T1 sequence (P15056 whole entry V600E): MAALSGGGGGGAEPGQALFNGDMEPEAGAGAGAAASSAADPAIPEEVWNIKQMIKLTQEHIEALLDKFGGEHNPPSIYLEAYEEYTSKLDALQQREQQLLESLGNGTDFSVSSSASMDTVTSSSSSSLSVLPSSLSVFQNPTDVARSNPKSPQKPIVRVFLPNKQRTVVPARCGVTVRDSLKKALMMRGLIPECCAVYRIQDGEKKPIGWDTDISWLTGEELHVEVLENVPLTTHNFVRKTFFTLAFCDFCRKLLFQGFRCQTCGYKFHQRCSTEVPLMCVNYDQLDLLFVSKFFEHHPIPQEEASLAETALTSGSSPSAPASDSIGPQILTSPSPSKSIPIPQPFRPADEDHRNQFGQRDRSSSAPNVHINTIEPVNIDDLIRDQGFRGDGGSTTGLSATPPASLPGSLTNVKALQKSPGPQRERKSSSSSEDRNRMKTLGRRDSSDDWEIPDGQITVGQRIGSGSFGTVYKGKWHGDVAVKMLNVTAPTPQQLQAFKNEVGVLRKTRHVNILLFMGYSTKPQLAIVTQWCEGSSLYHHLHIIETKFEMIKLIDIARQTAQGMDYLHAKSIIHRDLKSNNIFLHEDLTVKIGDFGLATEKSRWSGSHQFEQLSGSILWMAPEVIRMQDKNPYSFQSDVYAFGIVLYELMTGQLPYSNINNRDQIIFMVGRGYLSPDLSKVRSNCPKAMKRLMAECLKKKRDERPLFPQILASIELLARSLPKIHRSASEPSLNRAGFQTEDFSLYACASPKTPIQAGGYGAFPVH
How it was run: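 Active b-Raf(V600E) (~4 pM) pre-incubated 60 min at room temperature with compound and kinase-dead biotinylated Mek (~10 nM) in Tris pH 7.5, MgCl2, BSA, DTT; ATP-started reaction ran 3 h, EDTA-stopped. Phospho-MEK detected by anti-p-MEK AlphaScreen luminescence; IC50 by non-linear regression.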

Row | Compound | IC50 (b-Raf(V600E)) | other results
1 | COc1cc(-c2[nH]c(-c3ccccc3)nc2-c2ccncc2)cnc1N [Compound 1, 3-methoxy-5-(2-phenyl-4-(pyridin-4-yl)-1H-imidazol-5-yl)pyridin-2-amine] | – | EC50 (A375 cells): 376 nM; EC50 (SU86.86 cells): 116 nM; EC50 (Malme3M cells): 429 nM; EC50 (Capan1 cells): 570 nM; EC50 (G361 cells): 70 nM
2 | COCC(=O)N[C@@H](C)CNc1nccc(-c2[nH]c(-c3ccc(F)cc3)nc2-c2cnc(N)c(OC)n2)n1 [Compound 5, (S)-N-(1-(4-(4-(5-amino-6-methoxypyrazin-2-yl)-2-(4-fluorophenyl)-1H-imidazol-5-yl)pyrimidin-2-ylamino)propan-2-yl)-2-methoxyacetamide] | – | EC50 (SU86.86 cells): 354 nM; EC50 (K1 cells): 892 nM
3 | COc1cc(Nc2nccc(-c3[nH]c(C(C)(C)C)nc3-c3cnc(N)c(OC)n3)n2)ccn1 [Compound 9, 4-(4-(5-amino-6-methoxypyrazin-2-yl)-2-tert-butyl-1H-imidazol-5-yl)-N-(2-methoxypyridin-4-yl)pyrimidin-2-amine] | – | EC50 (PC3MM cells): 250 nM
4 | COc1cc(-c2nc(-c3ccc(F)cc3)[nH]c2-c2ccncc2)cnc1N [Compound 66, 5-(2-(4-fluorophenyl)-5-(pyridin-4-yl)-1H-imidazol-4-yl)-3-methoxypyridin-2-amine] | 0.6 nM | EC50 (A375 cells): 623 nM; EC50 (Malme3M cells): 816 nM; EC50 (G361 cells): 1020 nM
5 | COCC(=O)NCCNc1nccc(-c2nc(-c3ccc(F)cc3)[nH]c2-c2cnc(N)c(OC)c2)n1 [Compound 81, N-(2-(4-(5-(6-amino-5-methoxypyridin-3-yl)-2-(4-fluorophenyl)-1H-imidazol-4-yl)pyrimidin-2-ylamino)ethyl)-2-methoxyacetamide] | 0.1 nM | EC50 (A375 cells): 547 nM; EC50 (Malme3M cells): 194 nM; EC50 (Capan1 cells): 319 nM; EC50 (G361 cells): 305 nM
6 | COCC(=O)N[C@@H](C)CNc1nccc(-c2[nH]c(-c3ccc(C(F)(F)F)cc3)nc2-c2cnc(N)c(OC)c2)n1 [Compound 198, (S)-N-(1-(4-(4-(6-amino-5-methoxypyridin-3-yl)-2-(4-(trifluoromethyl)phenyl)-1H-imidazol-5-yl)pyrimidin-2-ylamino)propan-2-yl)-2-methoxyacetamide] | 0.3 nM | EC50 (K1 cells): 787 nM
7 | COc1cc(-c2[nH]c(-c3ccc(C(F)(F)F)cc3)nc2-c2ccncc2)cnc1N [Example 2, 3-methoxy-5-(5-(pyridine-4-yl)-2-(4-(trifluoromethyl)phenyl)-1H-imidazol-4-yl)pyridin-2-amine] | 0.4 nM | –
8 | COc1cc(-c2nc(-c3ccccc3)[nH]c2-c2ccnc(NCCO)n2)cnc1N [Example 3, 2-(4-(4-(6-amino-5-methoxypyridin-3-yl)-2-phenyl-1H-imidazol-5-yl)pyrimidin-2-ylamino)ethanol] | 1.3 nM | –
9 | COCC(=O)N[C@@H](C)CNc1nccc(-c2[nH]c(-c3ccc(C(F)(F)F)cc3)nc2-c2cnc(N)c(OC)n2)n1 [Example 4, (S)—N-(1-(4-(4-(5-amino-6-methoxypyrazin-2-yl)-2-(4-(trifluoromethyl)phenyl)-1H-imidazol-5-yl)pyrimidin-2-ylamino)propan-2-yl)-2-methoxyacetamide] | 0.1 nM | –
10 | COc1cc(-c2nc(C(C)(C)C)[nH]c2-c2ccnc(NC[C@H](C)O)n2)cnc1N [Example 6] | 0.3 nM | –
11 | COCC(=O)N[C@@H](C)CNc1nccc(-c2[nH]c(C(C)(C)C)nc2-c2cnc(N)c(OC)n2)n1 [Example 7, (S)—N-(1-(4-(4-(5-amino-6-methoxypyrazin-2-yl)-2-tert-butyl-1H-imidazol-5-yl)pyrimidin-2-ylamino)propan-2-yl)-2-methoxyacetamide] | 0.3 nM | –
12 | COC(=O)N[C@@H](C)CNc1nccc(-c2[nH]c(C(C)(C)C)nc2-c2cnc(N)c(OC)n2)n1 [Example 8, (S)-methyl 1-(4-(4-(5-amino-6-methoxypyrazin-2-yl)-2-tert-butyl-1H-imidazol-5-yl)pyrimidin-2-ylamino)propan-2-ylcarbamate] | 0.1 nM | –
13 | COc1cc(Nc2nccc(-c3[nH]c(C(C)(C)C)nc3-c3cnc(N)c(OC)n3)n2)ccn1 [Example 9, 4-(4-(5-amino-6-methoxypyrazin-2-yl)-2-tert-butyl-1H-imidazol-5-yl)-N-(2-methoxypyridin-4-yl)pyrimidin-2-amine] | 0.1 nM | –
14 | COc1cc(-c2[nH]c(-c3ccc(F)cc3)nc2C2CCOCC2)cnc1N [Example 10, 5-(2-(4-fluorophenyl)-5-(tetrahydro-2H-pyran-4-yl)-1H-imidazol-4-yl)-3-methoxypyridin-2-amine] | 405 nM | –
15 | Fc1ccc(-c2nc(-c3ccncc3)c(-c3cnc4[nH]cc(Cl)c4c3)[nH]2)cc1 [Example 12, 3-chloro-5-(2-(4-fluorophenyl)-4-(pyridine-4-yl)-1H-imidazol-5-yl)-1H-pyrrolo[2,3-b]pyridine] | 2 nM | –
16 | COCC(=O)N[C@@H](C)CNc1nccc(-c2oc(-c3ccc(C(F)(F)F)cc3)nc2-c2cnc(N)c(OC)c2)n1 [Example 14] | 3 nM | –
17 | COc1cc(-c2sc(-c3ccccc3)nc2-c2ccncc2)cnc1N [Example 15, 3-methoxy-5-(2-phenyl-4-(pyridine-4-yl)thiazol-5-yl)pyridine-2-amine] | 1.9 nM | –

Continued, in another order:

Row | IC50 (b-Raf(V600E)) | Compound | other results
18 | 0.2 nM | COCC(=O)NCCNc1nccc(-c2[nH]c(-c3ccc(C(F)(F)F)cc3)nc2-c2cnc(N)c(OC)c2)n1 [Compound 85, N-(2-(4-(4-(6-amino-5-methoxypyridin-3-yl)-2-(4-(trifluoromethyl)phenyl)-1H-imidazol-5-yl)pyrimidin-2-ylamino)ethyl)-2-methoxyacetamide] | EC50 (SU86.86 cells): 111 nM; EC50 (Capan1 cells): 163 nM
19 | 1 nM | COc1cc(-c2[nH]c(-c3ccc(F)cc3F)nc2-c2ccncc2)cnc1N [Compound 106, 5-(2-(2,4-difluorophenyl)-4-(pyridin-4-yl)-1H-imidazol-5-yl)-3-methoxypyridin-2-amine] | EC50 (SU86.86 cells): 118 nM; EC50 (Capan1 cells): 674 nM
20 | 0.1 nM | COCC(=O)N[C@@H](C)CNc1nccc(-c2[nH]c(-c3ccc(F)cc3)nc2-c2cnc(N)c(OC)c2)n1 [Compound 163, (S)-N-(1-(4-(4-(6-amino-5-methoxypyridin-3-yl)-2-(4-fluorophenyl)-1H-imidazol-5-yl)pyrimidin-2-ylamino)propan-2-yl)-2-methoxyacetamide] | EC50 (PC3MM cells): 83 nM; EC50 (SU86.86 cells): 28 nM; EC50 (Capan1 cells): 535 nM
21 | 0.01 nM | COC(=O)N[C@@H](C)CNc1nccc(-c2[nH]c(C(C)(C)C)nc2-c2cnc(N)c(OC(F)F)c2)n1 [Compound 265, (S)-methyl 1-(4-(4-(6-amino-5-(difluoromethoxy)pyridin-3-yl)-2-tert-butyl-1H-imidazol-5-yl)pyrimidin-2-ylamino)propan-2-ylcarbamate] | –
22 | 1 nM | COc1cc(-c2nc(-c3ccccc3)[nH]c2-c2ccncc2)cnc1N [Example 1, 3-Methoxy-5-(2-phenyl-5-(pyridine-4-yl)-1H-imidazol-4-yl)pyridine-2-amine] | –
23 | 0.2 nM | COCC(=O)N[C@@H](C)CNc1nccc(-c2[nH]c(-c3ccc(F)cc3)nc2-c2cnc(N)c(OC)n2)n1 [Example 5, (S)—N-(1-(4-(4-(5-amino-6-methoxylpyrazin-2-yl)-2-(4-fluorophenyl)-1H-imidazol-5-yl)pyrimidin-2-ylamino)propan-2-yl)-2-methoxyacetamide] | –
24 | 36.5 nM | COc1cc(-c2[nH]c(-c3ccc(F)cc3)nc2-c2cncs2)cnc1N [Example 11, 5-(2-(4-fluorophenyl)-5-(thiazol-5-yl)-1H-imidazol-4-yl)-3-methoxypyridin-2-amine] | –
25 | 0.5 nM | COc1cc(-c2nc(-c3ccc(F)cc3)oc2-c2ccncc2)cnc1N [Example 13, 5-(2-(4-fluorophenyl)-5-(pyridin-4-yl)oxazol-4-yl)-3-methoxypyridin-2-amine] | –
26 | 14.3 nM | COc1cc(-c2nc(-c3ccc(F)cc3)sc2-c2ccncc2)cnc1N [Example 16, 5-(2-(4-fluorophenyl)-5-(pyridin-4-yl)thiazol-4-yl)-3-methoxypyridin-2-amine] | –
